Assays:
Assay type in all cases: in vivo
[1] = test system: barnyardgrass (Echinochloa crus-galli); experiment: Test A preemergence, barnyardgrass; conditions: Preemergence; for Barnyardgrass plant response rating: visual injury on 0 to 100 scale (0 no effect, 100 complete control), approximately 10 days; for Plant response rating, Barnyardgrass: 0 to 100 scale (0 no effect, 100 complete control)
In short: (§1)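 Test chemicals, formulated in a non-phytotoxic solvent mixture with surfactant, were sprayed postemergence on plants 2 to 10 cm tall at the one- to two-leaf stage. Preemergence treatment was a directed soil spray onto freshly seeded pots. Both used a loam soil and sand blend.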

kochia (Bassia scoparia) [2] = experiment: Test A preemergence, kochia; conditions: Preemergence; for Kochia plant response rating: visual injury on 0 to 100 scale (0 no effect, 100 complete control), approximately 10 days; for Plant response rating, Kochia: 0 to 100 scale (0 no effect, 100 complete control)
In short: as §1

[3] = test system: ragweed (common ragweed, Ambrosia artemisiifolia); experiment: Test A preemergence, ragweed; conditions: Preemergence; for Ragweed plant response rating: visual injury on 0 to 100 scale (0 no effect, 100 complete control), approximately 10 days; for Plant response rating, Ragweed: 0 to 100 scale (0 no effect, 100 complete control)
In short: as §1

[4] = test system: Ryegrass, Italian (Italian ryegrass, Lolium multiflorum); experiment: Test A preemergence, Ryegrass, Italian; conditions: Preemergence; for Ryegrass, Italian plant response rating: visual injury on 0 to 100 scale (0 no effect, 100 complete control), approximately 10 days; for Plant response rating, Ryegrass, Italian: 0 to 100 scale (0 no effect, 100 complete control)
In short: as §1

[5] = test system: Foxtail, Giant (giant foxtail, Setaria faberi); experiment: Test A preemergence, Foxtail, Giant; conditions: Preemergence; for Foxtail, Giant plant response rating: visual injury on 0 to 100 scale (0 no effect, 100 complete control), approximately 10 days; for Plant response rating, Foxtail, Giant: 0 to 100 scale (0 no effect, 100 complete control)
In short: as §1

[6] = test system: pigweed (Amaranthus retroflexus); experiment: Test A preemergence, pigweed; conditions: for Pigweed plant response rating: visual injury on 0 to 100 scale (0 no effect, 100 complete control), approximately 10 days; for Plant response rating, Pigweed: 0 to 100 scale (0 no effect, 100 complete control)
Excerpt: Seeds of plant species selected from barnyardgrass (Echinochloa crus-galli), kochia (Bassia scoparia), ragweed (common ragweed, Ambrosia artemisiifolia), Ryegrass, Italian (Italian ryegrass, Lolium multiflorum), Foxtail, Giant (giant foxtail, Setaria faberi), and pigweed (Amaranthus retroflexus) were planted into a blend of loam soil and sand and treated preemergence with a directed soil spray using test chemicals formulated in a non-phytotoxic solvent mixture which included a surfactant. At the same time, plants selected from these weed species and also wheat (Triticum aestivum), corn (Zea mays), blackgrass (Alopecurus myosuroides), and galium (catchweed bedstraw, Galium aparine) were planted in pots containing the same blend of loam soil and sand and treated with postemergence applications of test chemicals formulated in the same manner. Plants ranged in height from 2 to 10 cm and were in the one- to two-leaf stage for the postemergence treatment. […] A dash (-) response means no test result.

kochia (Bassia scoparia) [7] = experiment: Test A postemergence, kochia; conditions: Postemergence, 0 to 100 scale (0 no effect, 100 complete control); for Plant response rating, Kochia: 125 g ai/ha; for Kochia plant response rating: 500 g ai/ha, visual injury vs untreated controls after approx. 10 days
In short: as §1

[8] = test system: ragweed (common ragweed, Ambrosia artemisiifolia); experiment: Test A postemergence, ragweed; conditions: Postemergence, 0 to 100 scale (0 no effect, 100 complete control); for Plant response rating, Ragweed: 125 g ai/ha; for Ragweed plant response rating: 500 g ai/ha, visual injury vs untreated controls after approx. 10 days
In short: as §1

[9] = test system: Ryegrass, Italian (Italian ryegrass, Lolium multiflorum); experiment: Test A postemergence, Ryegrass, Italian; conditions: Postemergence, 0 to 100 scale (0 no effect, 100 complete control); for Plant response rating, Ryegrass, Italian: 125 g ai/ha; for Ryegrass, Italian plant response rating: 500 g ai/ha, visual injury vs untreated controls after approx. 10 days
In short: as §1

[10] = test system: Foxtail, Giant (giant foxtail, Setaria faberi); experiment: Test A postemergence, Foxtail, Giant; conditions: Postemergence, 0 to 100 scale (0 no effect, 100 complete control); for Plant response rating, Foxtail, Giant: 125 g ai/ha; for Foxtail, Giant plant response rating: 500 g ai/ha, visual injury vs untreated controls after approx. 10 days
In short: as §1

[11] = test system: pigweed (Amaranthus retroflexus); experiment: Test A postemergence, pigweed; conditions: Postemergence, 0 to 100 scale (0 no effect, 100 complete control); for Plant response rating, Pigweed: 125 g ai/ha; for Pigweed plant response rating: 500 g ai/ha, visual injury vs untreated controls after approx. 10 days
In short: as §1

[12] = test system: wheat (Triticum aestivum); experiment: Test A postemergence, wheat; conditions: Postemergence, 0 to 100 scale (0 no effect, 100 complete control); for Plant response rating, Wheat: 125 g ai/ha; for Wheat plant response rating: 500 g ai/ha, visual injury vs untreated controls after approx. 10 days
In short: (§2)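 Preemergence: seeded pots of loam plus sand received a directed soil spray. Postemergence: seedlings at one to two leaves, 2 to 10 cm high, were oversprayed. Each compound was formulated in a non-phytotoxic solvent mix that included a surfactant.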

corn (Zea mays) = experiment: Test A postemergence, corn; conditions: Postemergence, 0 to 100 scale (0 no effect, 100 complete control); for Plant response rating, Corn: 125 g ai/ha; for Corn plant response rating: 500 g ai/ha, visual injury vs untreated controls after approx. 10 days
In short: as §1

[13] = test system: blackgrass (Alopecurus myosuroides); experiment: Test A postemergence, blackgrass; conditions: Postemergence, 0 to 100 scale (0 no effect, 100 complete control); for Plant response rating, Blackgrass: 125 g ai/ha; for Blackgrass plant response rating: 500 g ai/ha, visual injury vs untreated controls after approx. 10 days
In short: as §1

[14] = test system: galium (catchweed bedstraw, Galium aparine); experiment: Test A postemergence, galium; conditions: Postemergence, 0 to 100 scale (0 no effect, 100 complete control); for Plant response rating, Galium: 125 g ai/ha; for Galium plant response rating: 500 g ai/ha, visual injury vs untreated controls after approx. 10 days
In short: as §2

[15] = 125 g ai/ha, visual injury, approx. 10 days

SMILES	Barnyardgrass plant response rating ([1]; 125 g ai/ha)	Plant response rating, Barnyardgrass ([1]; 500 g ai/ha)	Kochia plant response rating (kochia (Bassia scoparia) [2]; 125 g ai/ha)	Plant response rating, Kochia (kochia (Bassia scoparia) [2]; 500 g ai/ha)	Ragweed plant response rating ([3]; 125 g ai/ha)	Plant response rating, Ragweed ([3]; 500 g ai/ha)	Ryegrass, Italian plant response rating ([4]; 125 g ai/ha)	Plant response rating, Ryegrass, Italian ([4]; 500 g ai/ha)	Foxtail, Giant plant response rating ([5]; 125 g ai/ha)	Plant response rating, Foxtail, Giant ([5]; 500 g ai/ha)	Plant response rating, Pigweed ([6]; 500 g ai/ha)	Kochia plant response rating (kochia (Bassia scoparia) [7])	Ragweed plant response rating [8]	Ryegrass, Italian plant response rating [9]	Foxtail, Giant plant response rating [10]	Pigweed plant response rating [11]	Wheat plant response rating [12]	Corn plant response rating (corn (Zea mays))	Blackgrass plant response rating [13]	Galium plant response rating [14]	also measured
Cc1cc(C)c(-c2cc(Cl)nn(C)c2=O)cc1NS(=O)(=O)C(F)(F)F [Compound 72]	90	100	100	100	80	90	90	100	100	100	100	90	70	80	90	80	70	50	80	90	Pigweed plant response rating ([6]; 125 g ai/ha): 80; Plant response rating, Kochia (kochia (Bassia scoparia) [7]; visual injury approx. 10 days): 40; Plant response rating, Ragweed ([8]; visual injury approx. 10 days): 20; Plant response rating, Ryegrass, Italian ([9]; visual injury approx. 10 days): 60; Plant response rating, Foxtail, Giant ([10]; visual injury approx. 10 days): 90; Plant response rating, Pigweed ([11]; visual injury approx. 10 days): 60; Plant response rating, Wheat ([12]; visual injury approx. 10 days): 60; Plant response rating, Corn (corn (Zea mays); visual injury approx. 10 days): 0; Plant response rating, Blackgrass ([13]; visual injury approx. 10 days): 50; Plant response rating, Galium ([14]; visual injury approx. 10 days): 70
Cc1cc(C)c(N(S(C)(=O)=O)S(=O)(=O)C(F)(F)F)cc1-c1ccnn(C)c1=O [Compound 73]	90	90	80	90	80	80	90	100	100	100	100	70	80	90	90	80	70	70	80	90	Pigweed plant response rating ([6]; 125 g ai/ha): 90; Plant response rating, Kochia (kochia (Bassia scoparia) [7]; visual injury approx. 10 days): 10; Plant response rating, Ragweed ([8]; visual injury approx. 10 days): 20; Plant response rating, Ryegrass, Italian ([9]; visual injury approx. 10 days): 60; Plant response rating, Foxtail, Giant ([10]; visual injury approx. 10 days): 80; Plant response rating, Pigweed ([11]; visual injury approx. 10 days): 60; Plant response rating, Wheat ([12]; visual injury approx. 10 days): 60; Plant response rating, Corn (corn (Zea mays); visual injury approx. 10 days): 10; Plant response rating, Blackgrass ([13]; visual injury approx. 10 days): 40; Plant response rating, Galium ([14]; visual injury approx. 10 days): 90
Cc1cc(C)c(N(S(=O)(=O)C(F)(F)F)S(=O)(=O)C(F)(F)F)cc1-c1cc(Cl)nn(C)c1=O [Compound 74]	90	100	70	100	70	90	80	100	100	100	100	90	30	70	80	90	70	10	50	90	Pigweed plant response rating ([6]; 125 g ai/ha): 60; Plant response rating, Kochia (kochia (Bassia scoparia) [7]; visual injury approx. 10 days): 30; Plant response rating, Ragweed ([8]; visual injury approx. 10 days): 0; Plant response rating, Ryegrass, Italian ([9]; visual injury approx. 10 days): 20; Plant response rating, Foxtail, Giant ([10]; visual injury approx. 10 days): 40; Plant response rating, Pigweed ([11]; visual injury approx. 10 days): 80; Plant response rating, Wheat ([12]; visual injury approx. 10 days): 60; Plant response rating, Corn (corn (Zea mays); visual injury approx. 10 days): 0; Plant response rating, Blackgrass ([13]; visual injury approx. 10 days): 40; Plant response rating, Galium ([14]; visual injury approx. 10 days): 50
Cc1cc(-c2cc(N(S(=O)(=O)C(F)(F)F)S(=O)(=O)C(F)(F)F)c(C)cc2C)c(=O)n(C)n1 [Compound 75]	90	100	80	100	20	80	80	100	100	100	100	80	50	60	90	80	70	0	70	90	Pigweed plant response rating ([6]; 125 g ai/ha): 80; Plant response rating, Kochia (kochia (Bassia scoparia) [7]; visual injury approx. 10 days): 20; Plant response rating, Ragweed ([8]; visual injury approx. 10 days): 0; Plant response rating, Ryegrass, Italian ([9]; visual injury approx. 10 days): 20; Plant response rating, Foxtail, Giant ([10]; visual injury approx. 10 days): 30; Plant response rating, Pigweed ([11]; visual injury approx. 10 days): 40; Plant response rating, Wheat ([12]; visual injury approx. 10 days): 40; Plant response rating, Corn (corn (Zea mays); visual injury approx. 10 days): 0; Plant response rating, Blackgrass ([13]; visual injury approx. 10 days): 30; Plant response rating, Galium ([14]; visual injury approx. 10 days): 70
Cc1cc(C)c(N(S(=O)(=O)C(F)(F)F)S(=O)(=O)C(F)(F)F)cc1-c1ccnn(C)c1=O [Compound 76]	90	90	60	90	70	90	60	100	100	100	100	90	90	80	90	90	80	70	50	100	Pigweed plant response rating ([6]; 125 g ai/ha): 50; Plant response rating, Kochia (kochia (Bassia scoparia) [7]; visual injury approx. 10 days): 50; Plant response rating, Ragweed ([8]; visual injury approx. 10 days): 60; Plant response rating, Ryegrass, Italian ([9]; visual injury approx. 10 days): 70; Plant response rating, Foxtail, Giant ([10]; visual injury approx. 10 days): 90; Plant response rating, Pigweed ([11]; visual injury approx. 10 days): 70; Plant response rating, Wheat ([12]; visual injury approx. 10 days): 40; Plant response rating, Corn (corn (Zea mays); visual injury approx. 10 days): 0; Plant response rating, Blackgrass ([13]; visual injury approx. 10 days): 50; Plant response rating, Galium ([14]; visual injury approx. 10 days): 90
Cc1cc(C)c(N(S(=O)(=O)C(F)(F)F)S(=O)(=O)C(F)(F)F)cc1C1=NOC2(CCC2)C1 [Compound 196]	–	90	–	80	–	0	–	70	–	100	100	20	30	30	0	50	0	0	0	80	Plant response rating, Barnyardgrass [1, 15]: 0; Plant response rating, Kochia (kochia (Bassia scoparia) [2]; [15]): 70; Plant response rating, Ragweed [3, 15]: 0; Plant response rating, Ryegrass, Italian [4, 15]: 20; Plant response rating, Foxtail, Giant [5, 15]: 30; Plant response rating, Pigweed [6, 15]: 50; Plant response rating, Kochia (kochia (Bassia scoparia) [7]): 10; Plant response rating, Ragweed [8]: 0; Plant response rating, Ryegrass, Italian [9]: 0; Plant response rating, Foxtail, Giant [10]: 0; Plant response rating, Pigweed [11]: 30; Plant response rating, Wheat [12]: 0; Plant response rating, Corn (corn (Zea mays)): 0; Plant response rating, Blackgrass [13]: 0; Plant response rating, Galium [14]: 60
Cc1cc(C)c(N(S(=O)(=O)C(F)(F)F)S(=O)(=O)C(F)(F)F)cc1C1=NOC2(CCCCC2)C1 [Compound 198]	–	100	–	80	–	80	–	90	–	100	100	60	80	40	30	70	40	20	0	90	Plant response rating, Barnyardgrass [1, 15]: 80; Plant response rating, Kochia (kochia (Bassia scoparia) [2]; [15]): 60; Plant response rating, Ragweed [3, 15]: 70; Plant response rating, Ryegrass, Italian [4, 15]: 60; Plant response rating, Foxtail, Giant [5, 15]: 100; Plant response rating, Pigweed [6, 15]: 70; Plant response rating, Kochia (kochia (Bassia scoparia) [7]): 20; Plant response rating, Ragweed [8]: 20; Plant response rating, Ryegrass, Italian [9]: 30; Plant response rating, Foxtail, Giant [10]: 0; Plant response rating, Pigweed [11]: 50; Plant response rating, Wheat [12]: 20; Plant response rating, Corn (corn (Zea mays)): 20; Plant response rating, Blackgrass [13]: 10; Plant response rating, Galium [14]: 70

Reference: patent US20230278972A1, “SUBSTITUTED HALOALKYL SULFONANILIDE HERBICIDES” (FMC Corporation, priority 2020, published 2023)
